This is an account of results in patent publication US20040037806A1, “Aldosterone blocker therapy to prevent or treat inflammation-related disorders” (Pharmacia Corporation, priority 2002, published 2004).

Common to all, as to format: in vivo, rat
Experiment [1] in a line: Assay A: angiotensin II infusion model, systolic blood pressure by tail-cuff. To be noted: Wistar rats, 1% NaCl to drink, angiotensin II 25 ng/min sc, 4 weeks; eplerenone 100 mpk; aldosterone given to adrenalectomized, dexamethasone-treated rats.
A short description of experiment [2]: Assay A: angiotensin II infusion model, urinary Na+/K+ ratio (natriuresis index). To be noted: Wistar rats, 1% NaCl, angiotensin II 25 ng/min sc; eplerenone 100 mpk. An excerpt: Electrolyte excretion. The ratio between daily urinary Na^+ excretion and urinary K^+ excretion (U Na^+/K^+ ratio) was used as an index for natriuresis. Urinary Na^+/K^+ ratio was similar in all groups before the start of the treatments, and increased similarly in all animals upon initiation of the high salt diet.

Experiment [3] can be described thus: Assay A: angiotensin II infusion model, heart histology (hematoxylin&eosin), vascular inflammation and myocardial injury. The following applies: Wistar rats, 1% NaCl, angiotensin II 25 ng/min sc, 4 weeks, 10/group; eplerenone 100 mpk; aldosterone replacement in adrenalectomized rats. An excerpt:
Assay A: In Vivo Angiotensin II Infusion Model
Male Wistar rats (n=50, 10/group; BW=200 g)
Sacrifice by exanguination after 4 weeks. Blood was be collected in dry tubes for determination of serum electrolytes and in EDTA-containing tubes for measurement of aldosterone and corticosterone levels
Hearts were stained with hematoxylin&eosin and have been analyzed for determination of morphologic abnormalities (i.e. necrosis, vascular injury).

The subject of experiment [4] is cyclooxygenase-2 (COX-2). Kind of experiment: Assay A: cyclooxygenase-2 immunostaining of hearts. The following applies: angiotensin II-infused, saline-drinking Wistar rats, eplerenone 100 mpk, aldosterone replacement in adrenalectomized rats.
Experiment [5] relates to osteopontin. The experiment can be described thus: Assay A: osteopontin immunostaining of hearts. The following applies: angiotensin II-infused, saline-drinking Wistar rats; eplerenone 100 mpk; aldosterone replacement in adrenalectomized rats.

In the case of “angiotensin II (DRVYIHPF; Angiotensin-2; UniProt P01019 25-32, looked up) [vasoconstrictive octapeptide infused sc via alzet minipump to induce hypertension]”, the Systolic blood pressure result in experiment [1] is on record as “increased”. Also, the “Urinary Na+/K+ ratio (index for natriuresis)” value in experiment [2] is given as “significantly increased”. For the same substance, the “Vascular inflammatory lesions in the coronary arteries / heart” value in experiment [3] was “Seven out of the ten”. The “Cyclooxygenase-2 expression in the heart (immunostaining)” value in experiment [4] was “presence of this enzyme in areas of inflammation around the arteries”; in experiment [4] (listed as Ang II) it was “induction of COX-2 expression”. For the same substance, the “Osteopontin expression in the heart (immunostaining)” value in experiment [5] was “presence of osteopontin in the media of coronary arteries”.
